According to patent US9255094B2, “Pyrido[4,3-B]indoles and methods of use” (Medivation Technologies, Inc., priority 2009, dated 2016):

Experiments:
[1] = biological target: T1, human recombinant serotonin (5-Hydroxytryptamine) 5-HT2C receptor (Homo sapiens, UniProt P28335); test: Serotonin 5-HT2C radioligand binding assay ([3H]Mesulergine); details: compound at 0.1 μM; 1 nM [3H]Mesulergine; CHO-K1 cells; read-out: Percent Inhibition of ligand binding, Serotonin (0.1 μM) 5-HT2C
T1 construct: expressed in transfected cells; host or cells: Chinese hamster ovary (CHO-K1) cells
T1 sequence (P28335 33-458): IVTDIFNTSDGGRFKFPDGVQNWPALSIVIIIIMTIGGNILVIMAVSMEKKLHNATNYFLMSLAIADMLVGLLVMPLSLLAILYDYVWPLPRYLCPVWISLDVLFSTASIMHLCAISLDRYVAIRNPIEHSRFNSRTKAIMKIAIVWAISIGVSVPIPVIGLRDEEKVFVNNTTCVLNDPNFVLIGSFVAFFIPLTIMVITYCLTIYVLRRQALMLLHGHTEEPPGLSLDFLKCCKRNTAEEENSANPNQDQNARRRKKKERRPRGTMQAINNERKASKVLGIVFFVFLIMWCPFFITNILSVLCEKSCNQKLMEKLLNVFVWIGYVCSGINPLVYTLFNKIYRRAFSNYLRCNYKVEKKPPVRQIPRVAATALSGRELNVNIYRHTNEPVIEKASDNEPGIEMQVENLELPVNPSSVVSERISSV
Method: (§1) Compounds of the invention were incubated with 1 nM [^3H]Mesulergine for 60 min at 25° C. Non-specific binding was estimated in the presence of 1 μM Mianserin. Receptor proteins were filtered and washed, the filters were then counted to determine [^3H]Mesulergine specifically bound. Compounds were screened at 1 μM or lower, using 1% DMSO as vehicle. Biochemical assay results are presented as the percent inhibition of specific binding in Table 4.

[2] = biological target: T2, human recombinant serotonin (5-Hydroxytryptamine) 5-HT6 receptor (Homo sapiens, UniProt P50406); test: Serotonin 5-HT6 radioligand binding assay ([3H]LSD); details: compound at 0.1 μM, HeLa cells, read-out: Percent Inhibition of ligand binding, Serotonin (0.1 μM) 5-HT6
T2 construct: expressed in transfected cells; host or cells: human HeLa cells
Method: (§2) Compounds of the invention were incubated with 1.5 nM [3H]Lysergic acid diethylamide (LSD) for 120 min at 37° C. […] Receptor proteins were filtered and washed, the filters were then counted to determine [3H]LSD specifically bound. Compounds were screened at 1 μM or lower, using 1% DMSO as vehicle. Biochemical assay results are presented as the percent inhibition of specific binding in Table 4.

[3] = biological target: T3, human recombinant serotonin (5-Hydroxytryptamine) 5-HT2A receptor (Homo sapiens, UniProt P28223); test: Serotonin 5-HT2A radioligand binding assay ([3H]Ketanserin); details: 0.5 nM [3H]Ketanserin, CHO-K1 cells; for inhibition at 0.1 µM: compound at 0.1 μM, read-out: Percent Inhibition of ligand binding, Serotonin (0.1 μM) 5-HT2A; for inhibition at 1 µM: read-out: Percent Inhibition of ligand binding, Serotonin (1 μM) 5-HT2A
T3 construct: expressed in transfected cells; host or cells: Chinese hamster ovary (CHO-K1) cells
Method: as §1, with “with 0.5” for “with 1”, “nM [^3H]Ketanserin” for “nM [^3H]Mesulergine”, “determine [^3H]Ketanserin” for “determine [^3H]Mesulergine”

[4] = biological target: human recombinant histamine H1 receptor (Homo sapiens, UniProt P35367); test: Histamine H1 radioligand binding assay ([3H]Pyrilamine); details: compound at 1 μM, receptor expressed in CHO cells
Method: To evaluate in radioligand binding assays the activity of compounds of the invention, human recombinant histamine H1 receptor expressed in Chinese hamster ovary (CHO) cells (De Backer, M. D. et al., Biochem. Biophys. Res. Comm. 197(3):1601, 1993) in a modified Tris-HCl buffer (50 mM Tris-HCl, pH 7.4, 2 mM MgCl2, 100 mM NaCl, 250 mM Sucrose) was used. Compounds of the invention were incubated with 1.2 nM [^3H]Pyrilamine for 180 min at 25° C. Non-specific binding was estimated in the presence of 1 μM pyrilamine Receptor proteins were filtered and washed, the filters were then counted to determine [^3H]Pyrilamine specifically bound. Compounds were screened at 1 μM or lower, using 1% DMSO as vehicle. Biochemical assay results are presented as the percent inhibition of specific binding in Table 2.

[5] = biological target: human recombinant dopamine D2L receptor (Homo sapiens, UniProt P14416); test: Dopamine D2L radioligand binding assay ([3H]Spiperone); details: compound at 1 μM, 0.16 nM [3H]Spiperone, CHO cells, read-out: Percent Inhibition of ligand binding, Dopamine (1μM)
Method: Compounds of the invention were incubated with 0.16 nM [^3H]Spiperone for 120 min at 25° C. Non-specific binding was estimated in the presence of 10 μM Haloperidol. Receptor proteins were filtered and washed, the filters were then counted to determine [^3H]Spiperone specifically bound. Compounds were screened at 1 μM or lower, using 1% DMSO as vehicle. Biochemical assay results are presented as the percent inhibition of specific binding in Table 3.

[6] = biological target: human recombinant serotonin (5-Hydroxytryptamine) 5-HT7 receptor (Homo sapiens, UniProt P34969); test: Serotonin 5-HT7 radioligand binding assay ([3H]LSD); details: compound at 0.1 μM; 5.5 nM [3H]LSD; CHO cells; read-out: Percent Inhibition of ligand binding, Serotonin (0.1 μM) 5-HT7
Method: as §2, with “of” for “of the”, “5.5” for “1.5”, “[^3H] Lysergic” for “[3H]Lysergic”, “2 h” for “120 min”, “25°” for “37°”, “[^3H]LSD” for “[3H]LSD”

[7] = biological target: T4, human recombinant adrenergic α2A receptor (Homo sapiens, UniProt P08913); test: Adrenergic α2A radioligand binding assay ([3H]MK-912); details: compound at 1 μM, 1 nM [3H]MK-912, insect Sf9 cells
T4 construct: expressed in transfected cells; host or cells: insect Sf9 cells
T4 sequence (P08913 1-465): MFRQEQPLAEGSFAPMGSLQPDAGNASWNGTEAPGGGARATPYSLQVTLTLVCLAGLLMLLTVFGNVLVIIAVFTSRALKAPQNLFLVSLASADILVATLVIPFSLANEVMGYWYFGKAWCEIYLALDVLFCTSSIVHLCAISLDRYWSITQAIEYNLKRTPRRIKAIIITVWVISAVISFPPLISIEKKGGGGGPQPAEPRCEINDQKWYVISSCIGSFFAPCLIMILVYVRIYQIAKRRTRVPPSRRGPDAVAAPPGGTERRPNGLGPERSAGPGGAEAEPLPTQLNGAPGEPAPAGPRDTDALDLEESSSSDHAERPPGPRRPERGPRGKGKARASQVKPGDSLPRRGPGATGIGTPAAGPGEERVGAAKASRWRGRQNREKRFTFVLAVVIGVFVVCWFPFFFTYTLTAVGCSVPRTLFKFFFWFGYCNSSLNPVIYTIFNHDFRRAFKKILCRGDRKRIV
Method: To evaluate in radioligand binding assays the activity of compounds of the invention, human recombinant adrenergic α2A receptor expressed in insect Sf9 cells (Uhlen S et al. J. Pharmacol. Exp. Ther. 271:1558, 1994) in a modified Tris-HCl buffer (50 mM Tris-HCl, pH 7.4, 12.5 mM MgCl2, 2 mM EDTA) was used. Compounds of invention were incubated with 1 nM [^3H]MK-912 for 60 min at 25° C. MK912 is (2S-trans)-1,3,4,5′,6,6′,7,12b-octahydro-1′,3′-dimethyl-spiro[2H-benzofuro[2,3-a]quinolizine-2,4′(1′H)-pyrimidin]-2′(3′H)-one hydrochloride Non-specific binding was estimated in the presence of 10 μM WB-4101 (2-(2,6-dimethoxyphenoxyethyl)aminomethyl-1,4-benzodioxane hydrochloride). Receptor proteins were filtered and washed, the filters were then counted to determine [^3H]MK-912 specifically bound.

Chain of human recombinant histamine H1 receptor (P35367 whole entry): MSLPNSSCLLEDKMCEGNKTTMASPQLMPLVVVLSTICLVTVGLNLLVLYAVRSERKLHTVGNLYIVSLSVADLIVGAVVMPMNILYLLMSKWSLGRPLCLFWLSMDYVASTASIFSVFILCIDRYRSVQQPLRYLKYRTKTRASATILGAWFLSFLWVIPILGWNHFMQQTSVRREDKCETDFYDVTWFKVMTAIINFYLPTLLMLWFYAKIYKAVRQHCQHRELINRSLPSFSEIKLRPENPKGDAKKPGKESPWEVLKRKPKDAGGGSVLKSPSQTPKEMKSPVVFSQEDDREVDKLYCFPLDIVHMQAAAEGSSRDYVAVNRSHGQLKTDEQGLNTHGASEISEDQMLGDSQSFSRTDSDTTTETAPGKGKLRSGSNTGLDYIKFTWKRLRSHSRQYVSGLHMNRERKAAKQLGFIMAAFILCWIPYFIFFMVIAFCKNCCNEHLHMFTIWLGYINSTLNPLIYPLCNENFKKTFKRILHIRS
Chain of human recombinant serotonin (5-Hydroxytryptamine) 5-HT7 receptor (P34969 whole entry): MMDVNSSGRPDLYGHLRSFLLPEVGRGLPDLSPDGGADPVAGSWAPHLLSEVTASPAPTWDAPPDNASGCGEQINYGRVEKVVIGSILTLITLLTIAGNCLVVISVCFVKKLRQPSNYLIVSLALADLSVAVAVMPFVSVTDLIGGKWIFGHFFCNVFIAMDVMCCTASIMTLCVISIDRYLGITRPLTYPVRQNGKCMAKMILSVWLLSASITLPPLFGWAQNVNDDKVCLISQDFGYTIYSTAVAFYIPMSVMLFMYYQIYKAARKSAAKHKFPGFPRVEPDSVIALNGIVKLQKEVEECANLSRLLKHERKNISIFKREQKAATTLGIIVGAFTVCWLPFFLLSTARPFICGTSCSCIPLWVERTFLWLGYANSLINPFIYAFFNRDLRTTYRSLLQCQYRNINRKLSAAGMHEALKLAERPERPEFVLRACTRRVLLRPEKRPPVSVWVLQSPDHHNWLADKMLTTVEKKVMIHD
T3 sequence (P28223 whole entry): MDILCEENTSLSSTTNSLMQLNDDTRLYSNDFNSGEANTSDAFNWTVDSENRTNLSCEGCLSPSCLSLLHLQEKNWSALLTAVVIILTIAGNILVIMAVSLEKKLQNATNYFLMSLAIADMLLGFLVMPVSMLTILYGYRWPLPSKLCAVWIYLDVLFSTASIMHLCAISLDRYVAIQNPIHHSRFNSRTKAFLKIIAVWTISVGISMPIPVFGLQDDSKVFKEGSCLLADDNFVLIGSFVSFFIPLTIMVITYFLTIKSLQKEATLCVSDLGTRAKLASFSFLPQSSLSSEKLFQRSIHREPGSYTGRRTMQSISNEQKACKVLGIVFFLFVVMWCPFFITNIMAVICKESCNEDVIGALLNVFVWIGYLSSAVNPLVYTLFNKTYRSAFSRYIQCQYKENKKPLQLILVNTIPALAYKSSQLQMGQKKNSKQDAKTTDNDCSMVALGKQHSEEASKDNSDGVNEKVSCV
T2 sequence (P50406 whole entry): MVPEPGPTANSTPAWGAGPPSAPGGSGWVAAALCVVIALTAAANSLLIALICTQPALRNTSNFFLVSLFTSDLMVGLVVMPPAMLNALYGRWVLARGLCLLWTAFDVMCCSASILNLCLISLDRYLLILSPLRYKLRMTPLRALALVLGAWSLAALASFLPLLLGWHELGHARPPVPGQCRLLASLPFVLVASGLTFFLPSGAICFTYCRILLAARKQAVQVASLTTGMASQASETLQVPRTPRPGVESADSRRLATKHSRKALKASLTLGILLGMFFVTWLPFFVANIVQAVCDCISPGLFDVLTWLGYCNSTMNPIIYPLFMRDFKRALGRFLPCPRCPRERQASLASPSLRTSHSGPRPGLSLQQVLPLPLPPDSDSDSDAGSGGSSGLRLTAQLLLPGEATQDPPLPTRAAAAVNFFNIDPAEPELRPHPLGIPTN
Chain of human recombinant dopamine D2L receptor (P14416 whole entry): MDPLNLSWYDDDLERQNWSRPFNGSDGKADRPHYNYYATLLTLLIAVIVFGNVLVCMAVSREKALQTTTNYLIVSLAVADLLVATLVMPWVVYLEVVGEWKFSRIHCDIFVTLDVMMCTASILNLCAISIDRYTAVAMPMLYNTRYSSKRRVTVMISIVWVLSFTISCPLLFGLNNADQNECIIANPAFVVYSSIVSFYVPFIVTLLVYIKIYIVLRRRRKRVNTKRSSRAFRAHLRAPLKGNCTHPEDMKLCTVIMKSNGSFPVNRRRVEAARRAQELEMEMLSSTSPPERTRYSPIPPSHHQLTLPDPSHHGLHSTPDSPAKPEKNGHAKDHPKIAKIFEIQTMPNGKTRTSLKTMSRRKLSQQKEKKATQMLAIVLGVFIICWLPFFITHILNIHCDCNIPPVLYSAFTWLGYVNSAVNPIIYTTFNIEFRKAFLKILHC

## Cc1ccc2c(c1)c1c(n2CCc2ccc(C(F)(F)F)nc2)C(C)CN(C)C1 (stereo not shown) [Compound 1-51, 2,4,8-trimethyl-5-(2-(6-(trifluoromethyl)pyridin-3-yl)ethyl)-2,3,4,5-tetrahydro-1H-pyrido[4,3-b]indole]
[1]
  inhibition at 0.1 µM: 92%
[2]
  inhibition at 0.1 µM: 4%
[3]
  inhibition at 0.1 µM: 77%
[4]
  inhibition at 1 µM: 65%
[5]
  inhibition at 1 µM: 14%
[6]
  inhibition at 0.1 µM: 15%

## Cc1ccc2c(c1)c1c(n2CCc2ccc(C)nc2)CC(C)N(C)C1 (stereo not shown) [Compound 1-44, 2,3,8-trimethyl-5-(2-(6-methylpyridin-3-yl)ethyl)-2,3,4,5-tetrahydro-1H-pyrido[4,3-b]indole]
[1]
  inhibition at 0.1 µM: 45%
[2]
  inhibition at 0.1 µM: 46%
[3]
  inhibition at 0.1 µM: 16%
[4]
  inhibition at 1 µM: 100%
[5]
  inhibition at 1 µM: 8%
[6]
  inhibition at 0.1 µM: 74%

## CCCCC(O)(Cn1c2c(c3cc(Cl)ccc31)CN(C)CC2)c1ccc(F)cc1 (stereo not shown) [Compound 1-64, 1-(8-chloro-2-methyl-3,4-dihydro-1H-pyrido[4,3-b]indol-5(2H)-yl)-2-(4-fluorophenyl)hexan-2-ol]
[3]; compound at 1 μM
  Percent Inhibition of ligand binding, Serotonin (1 μM) 5-HT2A: 98%
[7]
  Percent Inhibition of ligand binding, Adrenergic (1 μM) a2A: 88%

## Cc1ccc2c(c1)c1c(n2CC2(c3ccncc3)CC2)CCN(C)C1 [Compound 1-50, 2,8-dimethyl-5-((1-(pyridin-4-yl)cyclopropyl)methyl)-2,3,4,5-tetrahydro-1H-pyrido[4,3-b]indole]
[1]
  inhibition at 0.1 µM: -1%
[2]
  inhibition at 0.1 µM: 30%
[3]
  inhibition at 0.1 µM: 77%
[4]
  inhibition at 1 µM: 97%
[5]
  inhibition at 1 µM: 47%
[6]
  inhibition at 0.1 µM: 95%

## CCCCC(O)(Cn1c2c(c3cc(Cl)ccc31)CN(C)CC2)c1ccc(F)cc1 (stereo not shown) [Compound 1-7, 1-(8-chloro-2-methyl-3,4-dihydro-1H-pyrido[4,3-b]indol-5(2H)-yl)-2-(4-fluorophenyl)hexan-2-ol]
[3]; compound at 1 μM
  inhibition at 1 µM: 98%
[7]; read-out: Percent Inhibition of ligand binding, Adrenergic (1 μM) a2A
  inhibition at 1 µM: 88%

## Cc1ccc2c(c1)c1c(n2CC(O)(c2ccc(F)cc2)C2CCCCC2)CCN(C)C1 (stereo not shown) [Compound 1-1, 1-cyclohexyl-2-(2,8-dimethyl-3,4-dihydro-1H-pyrido[4,3-b]indol-5(2H)-yl)-1-(4-fluorophenyl)ethanol]
[3]
  inhibition at 0.1 µM: 60%
[3]; compound at 1 μM
  inhibition at 1 µM: 97%
[4]
  inhibition at 1 µM: 22%
[5]
  inhibition at 1 µM: 13%

## Cc1ccc2c(c1)c1c(n2CCc2ccc(C(F)(F)F)nc2)CC(C)N(C)C1 (stereo not shown) [Compound 1-45, 2,3,8-trimethyl-5-(2-(6-(trifluoromethyl)pyridin-3-yl)ethyl)-2,3,4,5-tetrahydro-1H-pyrido[4,3-b]indole]
[1]
  inhibition at 0.1 µM: 50%
[2]
  inhibition at 0.1 µM: 18%
[3]
  inhibition at 0.1 µM: 51%
[4]
  inhibition at 1 µM: 96%
[5]
  inhibition at 1 µM: 0%
[6]
  inhibition at 0.1 µM: 78%

## Cc1ccc(CCn2c3c(c4cc(Cl)ccc42)CN(C)C(C)C3)cn1 (stereo not shown) [Compound 1-48, 8-chloro-2,3-dimethyl-5-(2-(6-methylpyridin-3-yl)ethyl)-2,3,4,5-tetrahydro-1H-pyrido[4,3-b]indole]
[1]
  inhibition at 0.1 µM: 40%
[2]
  inhibition at 0.1 µM: 50%
[3]
  inhibition at 0.1 µM: 30%
[4]
  inhibition at 1 µM: 101%
[5]
  inhibition at 1 µM: 12%
[6]
  inhibition at 0.1 µM: 86%

## Cc1ccc2c(c1)c1c(n2CC(C)c2ccc(C)nc2)CC(C)N(C)C1 (stereo not shown) [Compound 1-47, 2,3,8-trimethyl-5-(2-(6-methylpyridin-3-yl)propyl)-2,3,4,5-tetrahydro-1H-pyrido[4,3-b]indole]
[1]
  inhibition at 0.1 µM: 70%
[2]
  inhibition at 0.1 µM: 19%
[3]
  inhibition at 0.1 µM: 46%
[4]
  inhibition at 1 µM: 91%
[5]
  inhibition at 1 µM: 12%
[6]
  inhibition at 0.1 µM: 85%

## CCC(O)(Cn1c2c(c3cc(C)ccc31)CN(C)CC2)c1ccncc1 (stereo not shown) [Compound 1-24, 1-(2,8-dimethyl-3,4-dihydro-1H-pyrido[4,3-b]indol-5(2H)-yl)-2-(pyridin-4-yl)butan-2-ol]
[1]
  inhibition at 0.1 µM: 8%
[2]
  inhibition at 0.1 µM: 10%
[3]
  inhibition at 0.1 µM: 36%
[5]
  inhibition at 1 µM: 9%
[6]
  inhibition at 0.1 µM: 12%
